Results published in patent US11186613B2, “Solid-phase support comprising IgG-binding peptide, and method for separating IgG” (Kagoshima University, priority 2016, dated 2021).
Like-named read-outs stand apart in the source and are kept apart here. Bridges are numbered along the chain shown (N, C = ends). Primed or numbered codes have the meaning given here. Where no end group is shown, it is not given here. The star is where a group is joined. Biotin = O=C1N[C@H]2[C@H](CS[C@H]2CCCCC(=O)*)N1; Fmoc = O=C(OCC1c2ccccc2-c2ccccc21)*; PEG4′ = not defined here

Key:
IgG = assay: Affinity analysis of IgG-binding peptides by surface plasmon resonance (BIAcore T200), IgG immobilized on sensor chip; details: for ka / kd: peptide 10 nM to 2 μM, HBS-EP buffer pH 7.0
Procedure: Affinity analysis of the purified IgG-binding peptide was carried out according to the following method. Equal amounts of 0.4 M 1-ethyl-3-(3-dimethylaminopropyl)-carbodiimide (EDC) and 0.1 M sulfo-N-hydroxysuccinimide (sulfo-NHS) were mixed and injected onto a CMS sensor chip, which was set in BIAcoreT200 (GE healthcare), at a flow rate of […] for 7 min to activate the sensor chip, and then the IgG was immobilized on the sensor chip under conditions of pH 4.0 (10 mM Na acetate) so as to give an immobilized amount of 4000 to 5000 in RU value. The binding reaction was monitored by injecting the peptide in a concentration from 10 nM to 2 μM at a flow rate of […] for 180 sec while using an HBS-EP buffer (0.01 M HEPES, 0.15 M NaCl, 0.005% TWEEN 20, 3 mM EDTA, pH 7.0), and then the dissociation reaction was measured by washing with the buffer for 600 sec. Binding parameters were analyzed using BlAevalution T100 software.

[1] = tested on: human-derived serum γ-globulin; assay: Competitive elution with peptide from peptide-immobilized column, SDS-PAGE; details: 2.5 mL of 0.4 mg/mL peptide solution; bands around 25 kDa and 50 kDa on SDS-PAGE
Procedure: FIG. 2 illustrates results of SDS-PAGE of fractions fractionated in 0.5 mL that are obtained by eluting proteins with citric acid or the IgG-binding peptide from the column with immobilized peptide prepared in Example 3. The proteins were detected by CBB staining.
To the column prepared by the same method as in Example 3, 1 mg of human-derived serum γ-globulin was fed to adsorb the globulin thereto. The column was washed with the adsorption solution, and then 2.5 mL of a 0.4 mg/mL solution of Peptide a prepared in Example 2 dissolved in the adsorption solution was fed to the column. Each fraction fractionated in 0.5 mL was subjected to SDS-PAGE under reductive conditions in accordance with an ordinary method. Proteins were detected by CBB staining. For comparison, similar operations were carried out also for citric acid elution.

[2] = tested on: human serum-derived γ-globulin; assay: Evaluation of alkali resistance: DBC after repeated 0.1 M sodium hydroxide treatment; assay type: physicochemical; details: five 0.1 M sodium hydroxide treatments
Procedure: FIG. 4 illustrates measurement results of DBC of an IgG-binding peptide cross-linked via a linker, prepared in Example 2, and an IgG-binding peptide cross-linked by disulfide, prepared in Comparative Example 1, both of which were treated with sodium hydroxide.
To a 1-mg peptide-immobilized 1-mL column prepared by the same method as in Example 3, 5 mL of 0.1 M sodium hydroxide solution was fed. The column was then washed with the adsorption solution and DBC was measured at a flow rate of 1 mL/min as in Example 5. Subsequently, a cycle of the treatment with the sodium hydroxide solution and the DBC measurement was repeated five times to evaluate the alkali resistance. The variation rate of DBC was determined based on the DBC before the sodium hydroxide treatment as 100%.
As Comparative Example 1, a column with 1 mg of a peptide cross-linked by a disulfide bond immobilized thereon was prepared, and the alkali resistance evaluation was carried out as in Example 5.

[3] = tested on: human serum-derived γ-globulin; assay: Separation of human serum-derived γ-globulin on peptide-immobilized column, acidic elution; details: 1 mg peptide on NHS-activated 1-mL column; elution 20 mM citric acid pH 2.5
Procedure: FIG. 1 illustrates a result of a case where human serum-derived γ-globulin (Wako) was adsorbed to a column with immobilized peptide prepared in Example 3 and eluted with an acidic elution solution (20 mM citric acid, pH 2.5). The horizontal axis represents the volume of the elution liquid and the vertical axis represents the […] concentration measured by absorbance at 280 nm.
A dichloroacetone-cross-linked peptide was immobilized to an NHS-activated prepacked column (GE Healthcare) to carry out various evaluations to assess whether the dichloroacetone-cross-linked peptide can be used as an affinity ligand for human antibody purification.
The peptide-immobilized column was prepared by the following procedures. A syringe was used to feed a solution.
To a 1-mL capacity NHS-activated prepacked column, 5 mL of 1 mM hydrochloric acid was fed to remove an isopropanol solution in the column. […]
The prepared peptide-immobilized column was connected to a liquid chromatography system AKTAexplore (GE Healthcare) and equilibrated with the adsorption solution. […] The elution of proteins from the column was detected by absorbance at 280 nm. […]

[4] = SPR, 1:1 binding model, read-out: KD (nM) 1:1 binding
[5] = SPR, equilibrium value, read-out: KD (nM) Equilibrium value

Substance	Kd (IgG; [4])	Kd (IgG; [5])	ka (IgG; SPR)	kd (IgG; SPR)	Kd (IgG; measured as in Example 1, read-out: Kd (affinity for IgG))	elution of adsorbed γ-globulin by peptide solution [1]	alkali resistance (change in DBC by sodium hydroxide treatments) [2]	usability as ligand for an affinity column (adsorption and acid elution of γ-globulin) [3]
DCAYH(Xaa1)GELVWCT (SEQ ID NO:1, wherein Xaa1 was arginine and the C-terminus was amidated) ({Biotin-PEG4′}-DCAYHRGELVWCT-NH2; disulfide 2-12 (inferred)) [SEQ ID NO: 1, wherein Xaa1 is R]	54 nM	64.5 nM	4.57E+05	0.0248	–	–	–	–
Fmoc-HN-PEG4-GPDCAYH(Xaa1)GELVWCTFH (SEQ ID NO:2, wherein Xaa1 was arginine and the C-terminus was amidated) ({Fmoc-PEG4′}-GPDCAYHRGELVWCTFH-NH2; cysteine pairing not given here) [Peptide b]	–	–	–	–	1000 nM	–	–	–
GPDCAYH(Xaa1)GELVWCTFH (SEQ ID NO:2, wherein Xaa1 was acetylated lysine, and the C-terminus was amidated) (GPDCAYHXGELVWCTFH; Xaa1=acetyl-lysine; C-terminal amide; (8)..(8) Xaa is arginine, lysine, leucine, asparagine, or derivative thereof) [SEQ ID NO: 2, wherein Xaa1 is K (Acetyl)]	2700 nM	2800 nM	4.4E+05	0.12	–	–	–	–
GPDCAYH(Xaa1)GELVWCTFH (SEQ ID NO:2, wherein Xaa1 was arginine and the C-terminus was amidated) (GPDCAYHRGELVWCTFH-NH2; not fully specified (N-terminus, bridges); printed as GPDCAYH(Xaa1)GELVWCTFH; cysteine pairing not given here) [SEQ ID NO: 2, wherein Xaa1 is R]	9.1 nM	10 nM	1.57E+06	0.0144	–	–	–	–
GPDCAYH(Xaa1)GELVWCTFH (SEQ ID NO:2, wherein Xaa1 was arginine and the C-terminus was amidated) ({Biotin-PEG4′}-GPDCAYHRGELVWCTFH-NH2; bridge 4-14; not fully specified (bridges); printed as GPDCAYH(Xaa1)GELVWCTFH) [Peptide a, N-terminally PEG4-modified, C-terminally amidated; cysteine sulfide groups connected via linker from 1,3-dichloro-2-propanone (linker drawing 11)]	–	–	–	–	–	can be used as a means for elution	no decrease in DBC	can be used as a ligand for an affinity column
GPDCAYH(Xaa1)GELVWCTFH (SEQ ID NO:2, wherein Xaa1 was leucine, and the C-terminus was amidated) ({Biotin-PEG4′}-GPDCAYHLGELVWCTFH-NH2; disulfide 4-14 (inferred)) [SEQ ID NO: 2, wherein Xaa1 is L]	8.1 nM	–	1.7E+05	0.014	–	–	–	–
GPDCAYH(Xaa1)GELVWCTFH (SEQ ID NO:2, wherein Xaa1 was lysine, and the C-terminus was amidated) (GPDCAYHXGELVWCTFH; Xaa1=K; C-terminal amide; (8)..(8) Xaa is arginine, lysine, leucine, asparagine, or derivative thereof) [SEQ ID NO: 2, wherein Xaa1 is K]	156 nM	131 nM	1.25E+06	0.195	–	–	–	–
GPRCAYH(Xaa1)GELVWCSFH (SEQ ID NO:4, wherein Xaa1 was arginine and the C-terminus was amidated) (GPRCAYHRGELVWCSFH-NH2; not fully specified (N-terminus, bridges); cysteine pairing not given here) [SEQ ID NO: 4, wherein Xaa1 is R]	42 nM	56 nM	8.40E+05	0.0353	–	–	–	–
